Test results from ChEMBL document CHEMBL5518181, “Studies of antibacterial activity (in vitro and in vivo) and mode of action for des-acyl tridecaptins (DATs)” (Eur J Med Chem, 2024).
≈ marks a conversion by molar mass, not a printed value.

Columns and labels:
[1] = tested on: Klebsiella pneumoniae; experiment: Antibacterial activity against wild-type Klebsiella pneumoniae ATCC 13883 assessed as inhibition of bacterial growth incubated for 18 hrs; assay type: functional; conditions: read-out: MIC100
[2] = tested on: Escherichia coli; experiment: Antibacterial activity against wild-type Escherichia coli ATCC 25922 assessed as inhibition of bacterial growth incubated for 18 hrs; assay type: functional; conditions: read-out: MIC100
[3] = Hemolytic activity in human red blood cells at 400 ug/ml incubated for 45 mins by spectrophotometric analysis relative to control; assay type: toxicity, cell-based, Erythrocyte; conditions: red blood cells (erythrocytes), at 400 µg/mL, read-out: Activity
[4] = Cytotoxicity against human HepG2 cells incubated for 40 hrs by celltiter-glo luminescent cell viability assay; assay type: toxicity, cell-based

SMILES | MIC [1] [µg/mL] | MIC [2] [µg/mL] | hemolysis at 0.75 h, 400 ug/ml [3] [%] | IC50 at 40 h [4] [µg/mL]
CC[C@H](C)[C@@H](NC(=O)[C@@H](NC(=O)[C@H](CCC(=O)O)NC(=O)[C@H](Cc1ccccc1)NC(=O)[C@@H](CCN)NC(=O)[C@H](CCN)NC(=O)[C@H](CO)NC(=O)[C@@H](Cc1c[nH]c2ccccc12)NC(=O)[C@@H](CO)NC(=O)CNC(=O)[C@@H](CCN)NC(=O)[C@H](NC(=O)[C@H](C)N)C(C)C)C(C)(C)C)C(=O)N[C@@H](C)C(=O)O | 2 (≈ 1.35 µM) | 2 (≈ 1.35 µM) | 82.7 | 12 (≈ 8.11 µM)
CC[C@H](C)[C@@H](NC(=O)[C@@H](NC(=O)[C@H](CCC(=O)O)NC(=O)[C@H](Cc1ccccc1)NC(=O)[C@@H](CCN)NC(=O)[C@H](CCN)NC(=O)[C@H](CO)NC(=O)[C@@H](Cc1c[nH]c2ccccc12)NC(=O)[C@@H](CO)NC(=O)CNC(=O)[C@@H](CCN)NC(=O)[C@H](NC(=O)C(C)(C)N)C(C)C)C(C)C)C(=O)N[C@@H](C)C(=O)O | 8 (≈ 5.41 µM) | 8 (≈ 5.41 µM) | 8.5 | 83 (≈ 56.1 µM)
CC[C@H](C)[C@@H](NC(=O)[C@@H](NC(=O)[C@H](CCC(=O)O)NC(=O)[C@H](Cc1c[nH]c2ccccc12)NC(=O)[C@@H](CCN)NC(=O)[C@H](CCN)NC(=O)[C@H](CO)NC(=O)[C@@H](Cc1c[nH]c2ccccc12)NC(=O)[C@@H](CO)NC(=O)CNC(=O)[C@@H](CCN)NC(=O)[C@H](N)C(C)C)C(C)C)C(=O)N[C@@H](C)C(=O)O | 8 (≈ 5.58 µM) | 16 (≈ 11.2 µM) | 43.7 | > 170
CC[C@H](C)[C@@H](NC(=O)[C@@H](NC(=O)[C@H](CCC(=O)O)NC(=O)[C@H](Cc1ccccc1)NC(=O)[C@@H](CCN)NC(=O)[C@H](CCN)NC(=O)[C@H](CO)NC(=O)[C@@H](Cc1c[nH]c2ccccc12)NC(=O)[C@@H](C)NC(=O)CNC(=O)[C@@H](CCN)NC(=O)[C@H](NC(=O)[C@H](C)N)C(C)C)C(C)C)C(=O)N[C@@H](C)C(=O)O | 32 (≈ 22.1 µM) | 16 (≈ 11 µM) | 0 | 139 (≈ 95.9 µM)
CC[C@H](C)[C@@H](NC(=O)[C@@H](NC(=O)[C@H](CCC(=O)O)NC(=O)[C@H](Cc1ccccc1)NC(=O)[C@@H](CCN)NC(=O)[C@H](CCN)NC(=O)[C@H](C)NC(=O)[C@@H](Cc1c[nH]c2ccccc12)NC(=O)[C@@H](CO)NC(=O)CNC(=O)[C@@H](CCN)NC(=O)[C@H](N)C(C)C)C(C)C)C(=O)N[C@@H](C)C(=O)O | > 64 | > 64 | 0 | > 170
CC[C@H](C)[C@@H](NC(=O)[C@@H](NC(=O)[C@H](CCC(=O)O)NC(=O)[C@H](Cc1ccccc1)NC(=O)[C@@H](CCN)NC(=O)[C@H](CN)NC(=O)[C@H](CO)NC(=O)[C@@H](Cc1c[nH]c2ccccc12)NC(=O)[C@@H](CO)NC(=O)CNC(=O)[C@@H](CCN)NC(=O)[C@H](NC(=O)[C@H](C)N)C(C)C)C(C)C)C(=O)N[C@@H](C)C(=O)O | > 64 | > 64 | 0 | > 170
CC[C@H](C)[C@@H](NC(=O)[C@@H](NC(=O)[C@H](CCC(=O)O)NC(=O)[C@H](Cc1ccccc1)NC(=O)[C@@H](CCN)NC(=O)[C@H](CCN)NC(=O)[C@H](CC(=O)O)NC(=O)[C@@H](Cc1c[nH]c2ccccc12)NC(=O)[C@@H](CO)NC(=O)CNC(=O)[C@@H](CCN)NC(=O)[C@H](N)C(C)C)C(C)C)C(=O)N[C@@H](C)C(=O)O | > 64 | > 64 | 0 | > 170
CC[C@H](C)[C@@H](NC(=O)[C@@H](NC(=O)[C@H](CCC(=O)O)NC(=O)[C@H](Cc1ccccc1)NC(=O)[C@@H](CCN)NC(=O)[C@H](CCN)NC(=O)[C@H](CO)NC(=O)[C@@H](Cc1c[nH]c2ccccc12)NC(=O)[C@@H](CO)NC(=O)CNC(=O)[C@@H](CN)NC(=O)[C@H](N)C(C)C)C(C)C)C(=O)N[C@@H](C)C(=O)O | 32 (≈ 23.2 µM) | 32 (≈ 23.2 µM) | 6.3 | 125 (≈ 90.5 µM)
CC[C@H](C)[C@@H](NC(=O)[C@@H](NC(=O)[C@H](CCC(=O)O)NC(=O)[C@H](C)NC(=O)[C@@H](CCN)NC(=O)[C@H](CCN)NC(=O)[C@H](CO)NC(=O)[C@@H](Cc1c[nH]c2ccccc12)NC(=O)[C@@H](CO)NC(=O)CNC(=O)[C@@H](CCN)NC(=O)[C@H](NC(=O)[C@H](C)N)C(C)C)C(C)C)C(=O)N[C@@H](C)C(=O)O | > 64 | > 64 | 0 | > 170
CC[C@H](C)[C@@H](NC(=O)[C@@H](NC(=O)[C@H](CCC(=O)O)NC(=O)[C@H](Cc1cccc2ccccc12)NC(=O)[C@@H](CCN)NC(=O)[C@H](CCN)NC(=O)[C@H](CO)NC(=O)[C@@H](Cc1c[nH]c2ccccc12)NC(=O)[C@@H](CO)NC(=O)CNC(=O)[C@@H](CCN)NC(=O)[C@H](NC(=O)[C@H](C)N)C(C)C)C(C)C)C(=O)N[C@@H](C)C(=O)O | 1 (≈ 0.66 µM) | 2 (≈ 1.32 µM) | 52.9 | 83 (≈ 54.8 µM)
CC[C@H](C)[C@@H](NC(=O)[C@@H](NC(=O)[C@H](CCC(=O)O)NC(=O)[C@H](Cc1ccccc1)NC(=O)[C@@H](CCN)NC(=O)[C@H](CCN)NC(=O)[C@H](CO)NC(=O)[C@@H](Cc1c[nH]c2ccccc12)NC(=O)[C@@H](CO)NC(=O)CNC(=O)[C@@H](CCN)NC(=O)[C@H](NC(=O)[C@@H](N)CC(=O)O)C(C)C)C(C)C)C(=O)N[C@@H](C)C(=O)O | > 64 | > 64 | 0 | > 170
CC[C@H](C)[C@@H](NC(=O)[C@@H](NC(=O)[C@H](CCC(=O)O)NC(=O)[C@H](Cc1ccccc1)NC(=O)[C@@H](CCN)NC(=O)[C@H](CCN)NC(=O)[C@H](CO)NC(=O)[C@@H](Cc1c[nH]c2ccccc12)NC(=O)[C@@H](CO)NC(=O)CNC(=O)[C@@H](C)NC(=O)[C@H](NC(=O)[C@H](C)N)C(C)C)C(C)C)C(=O)N[C@@H](C)C(=O)O | 64 (≈ 44.5 µM) | > 64 | 0.6 | > 170
CC[C@H](C)[C@@H](NC(=O)[C@@H](NC(=O)[C@H](CCC(=O)O)NC(=O)[C@H](Cc1ccccc1)NC(=O)[C@@H](CCN)NC(=O)[C@H](CCN)NC(=O)[C@H](CO)NC(=O)[C@@H](C)NC(=O)[C@@H](CO)NC(=O)CNC(=O)[C@@H](CCN)NC(=O)[C@H](NC(=O)[C@H](C)N)C(C)C)C(C)C)C(=O)N[C@@H](C)C(=O)O | > 64 | > 64 | 0 | > 170
CC[C@H](C)[C@@H](NC(=O)[C@@H](NC(=O)[C@H](CCC(=O)O)NC(=O)[C@H](Cc1ccccc1)NC(=O)[C@@H](CCN)NC(=O)[C@H](C)NC(=O)[C@H](CO)NC(=O)[C@@H](Cc1c[nH]c2ccccc12)NC(=O)[C@@H](CO)NC(=O)CNC(=O)[C@@H](CCN)NC(=O)[C@H](N)C(C)C)C(C)C)C(=O)N[C@@H](C)C(=O)O | 64 (≈ 46.9 µM) | > 64 | 5.9 | 126 (≈ 92.3 µM)
CC[C@H](C)[C@@H](NC(=O)[C@@H](NC(=O)[C@H](CCC(=O)O)NC(=O)[C@H](C)NC(=O)[C@@H](CCN)NC(=O)[C@H](CCN)NC(=O)[C@H](CO)NC(=O)[C@@H](Cc1c[nH]c2ccccc12)NC(=O)[C@@H](CO)NC(=O)CNC(=O)[C@@H](CCN)NC(=O)[C@H](N)C(C)C)C(C)C)C(=O)N[C@@H](C)C(=O)O | 64 (≈ 48.5 µM) | 64 (≈ 48.5 µM) | 2.5 | > 170
CC[C@H](C)[C@@H](NC(=O)[C@@H](NC(=O)[C@H](CCC(=O)O)NC(=O)[C@H](Cc1ccccc1)NC(=O)[C@@H](CCN)NC(=O)[C@H](CCN)NC(=O)[C@H](CO)NC(=O)[C@@H](Cc1c[nH]c2ccccc12)NC(=O)[C@@H](CO)NC(=O)[C@H](C)NC(=O)[C@@H](CCN)NC(=O)[C@H](N)C(C)C)C(C)C)C(=O)N[C@@H](C)C(=O)O | 64 (≈ 45.4 µM) | > 64 | 0 | > 170
CC[C@H](C)[C@@H](NC(=O)[C@@H](NC(=O)[C@H](CCC(=O)O)NC(=O)[C@H](Cc1ccccc1)NC(=O)[C@@H](CCN)NC(=O)[C@H](CCN)NC(=O)[C@H](CO)NC(=O)[C@@H](Cc1c[nH]c2ccccc12)NC(=O)[C@@H](CO)NC(=O)CNC(=O)[C@H](N)CCN)C(C)C)C(=O)N[C@@H](C)C(=O)O | > 64 | > 64 | 0 | > 170
CC[C@H](C)[C@@H](NC(=O)[C@@H](NC(=O)[C@H](CCC(=O)O)NC(=O)[C@H](Cc1ccccc1)NC(=O)[C@@H](CCN)NC(=O)[C@H](CCN)NC(=O)[C@H](CO)NC(=O)[C@@H](C)NC(=O)[C@@H](CO)NC(=O)CNC(=O)[C@@H](CCN)NC(=O)[C@H](N)C(C)C)C(C)C)C(=O)N[C@@H](C)C(=O)O | > 64 | > 64 | 0 | > 170
